Results: patent US20170325451A1, “Use of Alkyl Gallate for Stimulating the Natural Defenses of Plants” (priority 2014, published 2017)

Key:
tobacco leaf = assay: Infiltration of tobacco leaf: chlorosis and synthesis of autofluorescent compounds; format: in vivo; details: 4 days after infiltration; for production of autofluorescent compounds around the infiltration sites: solutions 5 mmol·L^−1, infiltrated
Description: The plants are 8 weeks old, in the 12-15 leaf stage, cultured in a greenhouse or growing chamber.
50 μL of different EG solutions having molar concentrations (0.5 mmol·L^−1 to 5 mmol·L^−1) and of MG and PG solutions having a molar concentration of 5 mmol·L^−1 are infiltrated on the upper side of the tobacco leaf. The negative control is water; the positive control is salicylic acid (SA) at a molar concentration of […].
The different plants are photographed 4 days after the infiltration.
The negative control is water.

tobacco BY-2 cells = assay: Alkalinization of the extracellular medium of tobacco BY-2 cell cultures; format: cell-based; details: for alkalinization of the extracellular medium: molar concentrations from 2 to 5 mmol·L^−1, BY-2 cultures
Description: The cell cultures are tobacco BY-2 cells maintained in cultures at 24° C., under stirring in darkness.
EG solutions (molar concentrations from 0.5 mmol·L^−1 to 5 mmol·L^−1), MG (1 mmol·L^−1 and 5 mmol·L^−1), or PG solutions (1 mmol·L^−1 and 5 mmol·L^−1) are added to tobacco BY-2 cell cultures at time T0. The pH is measured continuously (every 10 min) in the extracellular medium for 150 minutes.
The cell cultures are tobacco BY-2 cells maintained in cultures at 24° C., under stirring and in darkness.
Two GA solutions (0.5 mmol·L^−1 and 5 mmol·L^−1) are added to tobacco BY-2 cell cultures at time T0. The pH is measured continuously (every 10 min) in the extracellular medium for 150 minutes. EG solutions at different molar concentrations (0.5 mmol·L^−1 and 5 mmol·L^−1) are used as controls.

[1] = system: transcripts coding for pathogenesis-related proteins (PR1, PR2, PR3, PR5) in tobacco leaves; assay: Accumulation of PR transcripts in treated tobacco leaves (quantitative real-time PCR); format: in vivo
Description: The markers for the acquired local response (ALR) are tested for in the tobacco leaves that have been treated by the infiltration method (20 infiltration points per leaf/50 μL per infiltration) or by spraying (sufficient quantity to cover the leaf and obtain saturation, or approximately 2 mL per leaf) at a rate of 3 leaves per plant (non-senescent basal leaves). The leaves treated are separated from the plant 4 days after treatment and frozen immediately in liquid nitrogen for grinding and extraction of the total RNA. The RNA is extracted in the presence of CTAB buffer according to the protocol described by Chang et al. (1993) [Chang S, Puryear J, Cairney J (1993) A simple and efficient method for isolation RNA from pine trees. Plant mol Biol rep 11: 113-116]. The total RNA is purified and treated by DNase I (1 U) and RNase inhibitor (40 U) (Euromedex), in order to eliminate any possible contamination of the genomic DNA. The total RNA assay is run on the spectrophotometer (NanoDrop-1000). The integrity of the RNA is checked by agarose gel electrophoresis (1%) by detection of the ribosomal RNA subunits. The complementary DNA is synthesized from 1 μg of total RNA using Euroscript Reverse Transcriptase (Eurogentec). The PCR reactions are carried out with the Mastermix for SYBR GREEN kit (Eurogentec) using the iCycler iQ5 software (Bio-Rad). The specificity of the amplification is verified by melting curve analysis. The gene coding for EF-1α is used as an internal control. The quantification of the transcripts is calculated according to the mathematical model developed by Pfaffl (2001). [Pfaffl (2001) A new mathematical model for relative quantification in real time RT-PCR. Nucl. Acids res 29: 2002-7]. […]
4 days after the infiltration, the transcripts coding for pathogenesis-related proteins (PR proteins) are measured by quantitative real-time PCR. The total RNA is extracted from the infiltrated tobacco leaves. The cDNA is synthesized, and the transcripts of interest are quantified using specific primers of the genes PR1, PR2 and PR3.

[2] = 5 mmol·L^−1, infiltration, 4 days after treatment
[3] = 5 mmol·L^−1, spraying, 4 days after treatment
[4] = 50 mmol·L^−1, infiltration, 4 days after treatment
[5] = GA solutions 58.8 and 5.88 mmol·L^−1, infiltrated

CCOC(=O)c1cc(O)c(O)c(O)c1 [EG, ethyl gallate]
chlorosis (tobacco leaf; EG solutions 0.5 to 5 mmol·L^−1, 50 μL infiltrated on tobacco leaf, natural light): do not induce chlorosis | production of autofluorescent compounds of the phytoalexin type around the infiltration sites (tobacco leaf; EG solutions 0.5 to 5 mmol·L^−1, infiltrated, UV 312 nm): extensive production of autofluorescent compounds | alkalinization of the extracellular medium (tobacco BY-2 cells): induce a rapid alkalinization | Relative quantities of transcripts PR1 [1, 2]: 6.7 ± 1.2 | Relative quantities of transcripts PR2 [1, 2]: 6.2 ± 1.7 | Relative quantities of transcripts PR3 [1, 2]: 5.6 ± 1.3 | Relative quantities of transcripts PR1 [1, 3]: 15 ± 0.4 | Relative quantities of transcripts PR2 [1, 3]: 32 ± 4.6 | Relative quantities of transcripts PR3 [1, 3]: 23 ± 7.1 | Relative quantities of transcripts PR5 [1, 3]: 14 ± 2.2 | Relative quantities of transcripts PR1 [1, 4]: 3.7 ± 1.3 | Relative quantities of transcripts PR2 [1, 4]: 23.4 ± 3.3 | Relative quantities of transcripts PR3 [1, 4]: 30.4 ± 5.3 | accumulation of transcripts that are markers of the defense reactions: PR1, PR2, PR3, PR5 ([1]; EG solutions 5 and 50 mmol·L^−1, infiltration or spraying): induce the accumulation of transcripts

O=C(O)c1cc(O)c(O)c(O)c1 [GA, gallic acid, reference compound]
autofluorescent zones around the infiltration zones (tobacco leaf; [5]): not accompanied by autofluorescent zones | chlorosis (tobacco leaf; [5]): induce strong chlorosis | effect on the pH of the culture medium (tobacco BY-2 cells; GA solutions 0.5 and 5 mmol·L^−1, 150 minutes): no effect on the pH | accumulation of transcripts (PR1, PR2, PR3) compared to water ([1]; GA solution 5.88 mmol·L^−1, infiltration, 4 days after infiltration): does not induce a significant accumulation of transcripts

COC(=O)c1cc(O)c(O)c(O)c1 [MG, methyl gallate]
production of autofluorescent compounds around the infiltration sites (tobacco leaf; UV 312 nm): induce the same phenomenon of production of autofluorescent compounds | alkalinization of the extracellular medium (tobacco BY-2 cells): induce a rapid alkalinization

CCCOC(=O)c1cc(O)c(O)c(O)c1 [PG, propyl gallate]
production of autofluorescent compounds around the infiltration sites (tobacco leaf; UV 312 nm): induce the same phenomenon of production of autofluorescent compounds | alkalinization of the extracellular medium (tobacco BY-2 cells): induce a rapid alkalinization
